Experimental data published in patent US11559512B2, “Composition for prevention, alleviation, and/or treatment of heat illness” (priority 2017, dated 2023).
Entries after “also recorded” stand apart in the source; their conditions may differ. Where two headings read alike, the source gives them in different places.

What was measured:
[1] = tested on: human vascular endothelial cells (HUVECs)
Description: Then, 2 mL of trypsin/EDTA was added to the cells, and the cells were detached by incubation at 37° C. in a 5% CO2 environment. After the cell detachment, 5 mL/dish of a culture medium was added, and the cells were transferred to a 15-mL tube and centrifuged at 1200 rpm for 5 minutes in a centrifuge. The supernatant was removed, and then, the number of cells was adjusted to a cell density of 5×10^4 cells/mL using a cell counting kit by the addition of 5 mL of a culture medium. Then, two 6-well plates were used, and the solution with the adjusted HUVEC density was inoculated at 4 mL/well to 3 wells of each plate. Each phytochemical component was added at 4 μL (final concentration: 10 μM)/well to one well of each plate. Also, a phytochemical dissolving solution DMSO was added at 4 μL/well to the remaining wells to prepare a control. […]
Serial dilutions of auraptene were added to the cells, and the cell death of the HUVECs caused by heat stress was observed by crystal violet staining.

[2] = tested on: human vascular endothelial cells (HUVECs); test: DiOC6 / PI staining and flow cytometry of HUVECs under heat stress load; format: cell-based; conditions: heat stress load 40° C. for 2 days, flow cytometry, vs DMSO
Description: Two days later, the culture solution of each well was removed with an aspirator. […] The supernatant was removed, and then, 5 mL of a culture medium at 37° C. was added to the cells and stirred. After the stirring, DiOC6 (final concentration: 80 nM) was added to each 15-mL tube and reacted at the same temperature as the culture temperature for 30 minutes.
The supernatant was removed, and then, 1 mL of a culture medium was added to the cells, and 2 μL of PI (Sigma-Aldrich Co. LLC) was added. The cells thus supplemented were transferred to a FACS tube and measured in a flow cytometer (BD).
In order to quantify the effects, the cytotoxicity suppressive effects of auraptene (component A) and tangeretin (component T) inhibiting the cell death caused by the load of heat stress were quantified using DiOC6 staining and flow cytometry as described above. The DiOC6 dye is a reagent for measuring mitochondrial activity and is a reagent that can perform measurement based on the attenuation of the amount of fluorescence by cytotoxicity (cell death, etc.).

[3] = tested on: fat droplets in human vascular endothelial cells (HUVECs); test: Intracellular fat droplets, BODIPY staining, confocal microscopy; format: cell-based
Description: (§1) Then, nine 35-mm dishes were provided, and 2 mL/dish of the solution with the adjusted HUVEC density was inoculated. Auraptene (10 mM) and tangeretin (10 mM) were each added at 2 μL (final concentration: 10 μM)/dish to three dishes. Also, DMSO was added at 2 μL/dish to the remaining 3 dishes to prepare a control.
The supernatant of the HUVECs cultured in each 35-mm dish was removed, and 2 mL/dish of 4% paraformaldehyde in a phosphate buffer solution was added. The cells were left standing at room temperature for 1 hour for cell fixation. The solution was removed, and then, the cells were rinsed twice. 1 mL/dish of BODIPY diluted 2000-fold with a FACS buffer was added, and the cells were left standing at room temperature for 30 minutes in the dark for reaction.
(§2) The solution was removed, and then, the cells were rinsed twice. Two drops of Diamond Antifade Mountant with DAPI were added to the cells, and a round glass cover was put on the cells, followed by fluorescence photographing under a confocal laser scanning microscope.

[4] = tested on: PPARα; test: PPARα expression in HUVECs, antibody staining, confocal microscopy; format: cell-based, human
Description: as §1, with “Then, six” for “Then, nine”, “to two” for “to three”, “remaining 2” for “remaining 3”
(§3) The supernatant of the HUVECs cultured in each 35-mm dish was removed, and 2 mL/dish of 4% paraformaldehyde in a phosphate buffer solution was added. The cells were left standing at room temperature for 1 hour.
(§4) The solution was removed, and then, the cells were rinsed twice. 2 mL/dish of 0.5% Triton-X00 (Wako Pure Chemical Industries, Ltd.) in PBS was added, and the cells were left standing at room temperature for 5 minutes. The solution was removed, and then, the cells were rinsed twice. 1 mL/dish of an anti-ABCD3 antibody, an anti-PPARα antibody or an anti-PPARγ antibody, each of which was diluted 150-fold with a FACS buffer, was added, and the cells were left standing at room temperature for 2 hours for reaction.
as §2, with “The solution was removed, and then, the cells were rinsed twice. 1 mL/dish of DyLight 649-labeled anti-Rabbit IgG antibody diluted 500-fold with a FACS buffer was added, and the cells were left standing at room temperature for 1 hour in the dark for reaction. The” for “The”

[5] = tested on: PPARγ; test: PPARγ expression in HUVECs, antibody staining, confocal microscopy; format: cell-based, human
Description: as §1, with “Then, six” for “Then, nine”, “to two” for “to three”, “remaining 2” for “remaining 3”
as §3, §4
as §2, with “The solution was removed, and then, the cells were rinsed twice. 1 mL/dish of DyLight 649-labeled anti-Rabbit IgG antibody diluted 500-fold with a FACS buffer was added, and the cells were left standing at room temperature for 1 hour in the dark for reaction. The” for “The”

[6] = tested on: ABCD3; test: ABCD3 expression in HUVECs, antibody staining, confocal microscopy; format: cell-based, human; conditions: usual culture and heat stress load (40° C. for 3 days), vs DMSO
Description: as §1, with “Then, six” for “Then, nine”, “to two” for “to three”, “remaining 2” for “remaining 3”
as §3, §4
The solution was removed, and then, the cells were rinsed twice. […] Two drops of Diamond Antifade Mountant with DAPI were added to the cells, and a round glass cover was put on the cells, followed by fluorescence photographing under a confocal laser scanning microscope.

[7] = HUVECs, 40° C. for 2 days, final concentration 10 μM
[8] = Table 2 summary, HUVECs 40° C., 37° C. as comparative control
[9] = HUVECs, 40° C. and 1 day, 10 μM, vs DMSO

Question: For `C[S+]([O-])CCCCN=C=S` (centres unmarked) [sulforaphane, reference compound], which “suppression of cytotoxicity caused by the load of heat stress (phase contrast microscopic observation)” value (from here on “suppression of cytotoxicity caused”) [1] is on record?
Answer: unable to suppress the cytotoxicity

Question: With `COc1ccc(-c2cc(=O)c3c(OC)c(OC)c(OC)c(OC)c3o2)cc1OC` [nobiletin, reference compound] as the compound, how does the “suppression of cytotoxicity caused” value [1, 7] read?
Answer: unable to suppress the cytotoxicity

Question: How did the “suppression of cytotoxicity caused” value [1, 7] turn out when `COc1ccc2ccc(=O)oc2c1CC=C(C)C` [osthol, reference compound] was run?
Answer: unable to suppress the cytotoxicity

Question: How did the “suppression of cytotoxicity caused” value [1, 7] turn out when `C[N+](C)(C)[C@@H](Cc1c[nH]c(=S)[nH]1)C(=O)[O-]` [ergothioneine, reference compound] was run?
Answer: unable to suppress the cytotoxicity

Question: For `CC(C)(Oc1ccc(CCNC(=O)c2ccc(Cl)cc2)cc1)C(=O)O` [bezafibrate, reference compound], which “suppression of cytotoxicity caused” value [1] is on record?
Answer: unable to suppress the cytotoxicity

Question: What does the source list for `COc1ccc(-c2cc(=O)c3c(OC)c(OC)c(OC)c(OC)c3o2)cc1` [tangeretin, 4′,5,6,7,8-pentamethoxyflavone]?
Answer: Cytotoxicity (cell death) [1]: Suppressed; cell survival by crystal violet staining ([1]; HUVECs cultured at 40° C. for 3 days, vs DMSO): evidently increased cell survival; number of DiOC6 staining-positive cells (suppression of cytotoxicity, cell death) [2]: increased the number of DiOC6 staining-positive cells; amount of fat droplets under heat stress load ([3]; HUVECs, 40° C. for 2 days, 10 μM, BODIPY, vs DMSO): decrease in the amount of fat droplets; also recorded: decreased the amount of fat droplets; amount of fat droplets at usual culture ([3]; HUVECs, usual culture (37° C.), 10 μM, vs DMSO): no change in the amount of fat droplets; Amount of fat droplets [3, 8]: Decreased; expression of PPARα [4, 9]: increase in the expression of PPARα; PPARα [4, 8]: Increased; expression of PPARγ [5, 9]: increasing effect was not observed; PPARγ [5, 8]: Increased; change in the expression of ABCD3 [6]: change in the expression of ABCD3 was not observed

Question: How did the “suppression of cytotoxicity caused” value [1] turn out when `Oc1ccc(C=Cc2cc(O)cc(O)c2)cc1` [resveratrol, reference compound] was run?
Answer: unable to suppress the cytotoxicity

Question: Which “concentration at which the cell death suppressive effect was confirmed (value in brackets)” value ([1]; HUVECs, 40° C. for 3 days, crystal violet staining) does the source give for `C[N+](C)(C)C[C@H](O)CC(=O)[O-]` [L-carnitine, reference compound] here?
Answer: 15 mM

Question: What about the “concentration at which the cell death suppressive effect was observed” value ([1]; HUVECs, 40° C. for 3 days, 0, 1.2 or 2.5 mg/ml) of the same compound?
Answer: 2.5 mg/mL

Question: And the “concentration required relative to auraptene” value ([1]; cell death suppressive effect, HUVECs 40° C.)?
Answer: approximately 25000 times
